Assay results: PMC9415638, “Discovery of novel thiazolyl-pyrazolines as dual EGFR and VEGFR-2 inhibitors endowed with in vitro antitumor activity towards non-small lung cancer” (Journal of Enzyme Inhibition and Medicinal Chemistry, 2022)

Legend:
ROCK1 = ROCK1 (Homo sapiens, UniProt Q13464); experiment: Kinase selectivity profiling, Z'-LYTE FRET
CDK1 = CDK1 (Homo sapiens, UniProt P06493); experiment: Kinase selectivity profiling, Z'-LYTE FRET
[1] = system: WI-38 human lung fibroblast cells; experiment: MTT cytotoxicity assay on normal cells; format: cell-based; settings: for IC50: Homo sapiens, WI-38, normal lung fibroblasts, MTT, 24 h, n = 3, read-out: IC50 (µM) ± SEM WI-38; for Mean tumour selectivity: S. I. (WI-38/A549 and H441)
Experimental: All chemicals used in this study were analytical or cell-culture grade.
Cytotoxicity was measured using the MTT assay. […] The medium was aspirated and 150 μL DMSO was added to solubilise MTT formazan crystals. The plates were then shaken, and the optical density was determined at 570 nm using an ELISA plate reader (Model 550, Bio-Rad, Hercules, CA). At least three independent experiments were performed.

[2] = molecular target: T1, recombinant human VEGFR-2/KDR (Homo sapiens, UniProt P35968); experiment: VEGFR-2 kinase assay (VEGFR-2/KDR ELISA kit); format: biochemical; settings: read-out: IC50 (nM) ± SEM VEGFR-2
T1 construct: purchased
Experimental: (§1) The EGFR kinase assay was carried out in 96-well plates coated with PGT (poly l-glutamic acid l-tyrosine, 4:1, Sigma Aldrich, St. Louis, MO) as previously described. IC50 values were calculated using GraphPad Prism 5. Each experiment was carried out at least three times. The VEGFR-2 kinase assay was carried out in 96-well streptavidin coated plate using recombinant human VEGFR-2/KDR ELISA kit according to manufacturer’s instructions.

LCK = LCK (Homo sapiens, UniProt P06239); experiment: Kinase selectivity profiling, Z'-LYTE FRET
TEK = TEK (Homo sapiens, UniProt Q02763); experiment: Kinase selectivity profiling, Z'-LYTE FRET
PKC = experiment: Kinase selectivity profiling, Z'-LYTE FRET; settings: read-out: IC50 (nM) PKC
CLK1 = CLK1 (Homo sapiens, UniProt P49759); experiment: Kinase selectivity profiling, Z'-LYTE FRET
ABL1 = ABL1 (Homo sapiens, UniProt P00519); experiment: Kinase selectivity profiling, Z'-LYTE FRET
SYK = SYK (Homo sapiens, UniProt P43405); experiment: Kinase selectivity profiling, Z'-LYTE FRET
[3] = system: HCT116 colon cancer cells; experiment: Anti-proliferative MTT assay; format: cell-based; settings: Homo sapiens, HCT-116, 24 h, read-out: % Growth inhibition ± SEM HCT116
Experimental: (§2) To evaluate the anti-proliferative activity of the synthesised thiazolyl-pyrazoline derivatives (7a–7d, 10a–10d, and 13a–13f), a preliminary in vitro one dose (10 µM) anticancer assay was performed. Nine cell lines derived from five tumour subpanels were examined; leukaemia (K562 and KG-1a), breast (MCF-7, BT-549 and HCC70), lung (A549 and H441), colon (HCT116) and liver (HepG2) cancer cell lines. The compounds were added at a single concentration (10 µM) and the cultures were incubated for 24 h, then the per cent growth inhibition (%GI) was calculated.
(§3) Human leukaemia (K562 and KG-1a), breast (MCF-7, BT-549 and HCC70), lung (A549, H441, NCI-H1650 and NCI-H1975), colon (HCT116), liver (HepG2) cancer cell lines and WI-38 human lung fibroblast cell line were obtained from the American Type Culture Collection (ATCC; Manassas, VA) and were cultured in their suitable media containing 10% foetal bovine serum (FBS; Sigma-Aldrich) in a humidified atmosphere with 5% CO2 at 37 °C. Gefitinib and vandetanib were purchased from Sigma-Aldrich. All chemicals used in this study were analytical or cell-culture grade.
(§4) Cytotoxicity was measured using the MTT assay. Human leukaemia (K562 and KG-1a), breast (MCF-7, BT-549 and HCC70), lung (A549, H441, NCI-H1650 and NCI-H1975), colon (HCT116), liver (HepG2) cancer cell lines and WI-38 human lung fibroblast cell line were plated at a density of 1 × 10^4 cells per well in 96-well plates overnight and then treated with the compounds. After 24 h treatment, 20 μL of MTT solution (2 mg/mL in phosphate-buffered saline [PBS]) was added to each well and the cells were cultured for another 4 h at 37 °C. The medium was aspirated and 150 μL DMSO was added to solubilise MTT formazan crystals. The plates were then shaken, and the optical density was determined at 570 nm using an ELISA plate reader (Model 550, Bio-Rad, Hercules, CA). At least three independent experiments were performed. The IC50 values were calculated using GraphPad Prism 5 (Version 5.01, GraphPad Software, San Diego, CA).

KG-1a leukaemia cells = experiment: Anti-proliferative MTT assay; format: cell-based; settings: Homo sapiens, 24 h, read-out: % Growth inhibition ± SEM KG-1a
Experimental: as §2, §3, §4

[4] = system: BT-549 breast cancer cells; experiment: Anti-proliferative MTT assay; format: cell-based; settings: Homo sapiens, 24 h, read-out: % Growth inhibition ± SEM BT-549
Experimental: as §2, §3, §4

[5] = system: HCC70 breast cancer cells; experiment: Anti-proliferative MTT assay; format: cell-based; settings: Homo sapiens, 24 h, read-out: % Growth inhibition ± SEM HCC70
Experimental: as §2, §3, §4

K562 leukaemia cells = experiment: Anti-proliferative MTT assay; format: cell-based; settings: Homo sapiens, 24 h, read-out: % Growth inhibition ± SEM K562
Experimental: as §2, §3, §4

HepG2 liver cancer cells = experiment: Anti-proliferative MTT assay; format: cell-based; settings: Homo sapiens, 24 h, read-out: % Growth inhibition ± SEM HepG2
Experimental: as §2, §3, §4

[6] = system: MCF-7 breast cancer cells; experiment: Anti-proliferative MTT assay; format: cell-based; settings: Homo sapiens, MCF7, 24 h, read-out: % Growth inhibition ± SEM MCF-7
Experimental: as §2, §3, §4

EGFR = EGFR (Homo sapiens, UniProt P00533); experiment: EGFR kinase assay (PGT-coated 96-well plates); format: biochemical; settings: read-out: IC50 (nM) ± SEM EGFR
Experimental: as §1

Chain of ABL1 (P00519 whole entry): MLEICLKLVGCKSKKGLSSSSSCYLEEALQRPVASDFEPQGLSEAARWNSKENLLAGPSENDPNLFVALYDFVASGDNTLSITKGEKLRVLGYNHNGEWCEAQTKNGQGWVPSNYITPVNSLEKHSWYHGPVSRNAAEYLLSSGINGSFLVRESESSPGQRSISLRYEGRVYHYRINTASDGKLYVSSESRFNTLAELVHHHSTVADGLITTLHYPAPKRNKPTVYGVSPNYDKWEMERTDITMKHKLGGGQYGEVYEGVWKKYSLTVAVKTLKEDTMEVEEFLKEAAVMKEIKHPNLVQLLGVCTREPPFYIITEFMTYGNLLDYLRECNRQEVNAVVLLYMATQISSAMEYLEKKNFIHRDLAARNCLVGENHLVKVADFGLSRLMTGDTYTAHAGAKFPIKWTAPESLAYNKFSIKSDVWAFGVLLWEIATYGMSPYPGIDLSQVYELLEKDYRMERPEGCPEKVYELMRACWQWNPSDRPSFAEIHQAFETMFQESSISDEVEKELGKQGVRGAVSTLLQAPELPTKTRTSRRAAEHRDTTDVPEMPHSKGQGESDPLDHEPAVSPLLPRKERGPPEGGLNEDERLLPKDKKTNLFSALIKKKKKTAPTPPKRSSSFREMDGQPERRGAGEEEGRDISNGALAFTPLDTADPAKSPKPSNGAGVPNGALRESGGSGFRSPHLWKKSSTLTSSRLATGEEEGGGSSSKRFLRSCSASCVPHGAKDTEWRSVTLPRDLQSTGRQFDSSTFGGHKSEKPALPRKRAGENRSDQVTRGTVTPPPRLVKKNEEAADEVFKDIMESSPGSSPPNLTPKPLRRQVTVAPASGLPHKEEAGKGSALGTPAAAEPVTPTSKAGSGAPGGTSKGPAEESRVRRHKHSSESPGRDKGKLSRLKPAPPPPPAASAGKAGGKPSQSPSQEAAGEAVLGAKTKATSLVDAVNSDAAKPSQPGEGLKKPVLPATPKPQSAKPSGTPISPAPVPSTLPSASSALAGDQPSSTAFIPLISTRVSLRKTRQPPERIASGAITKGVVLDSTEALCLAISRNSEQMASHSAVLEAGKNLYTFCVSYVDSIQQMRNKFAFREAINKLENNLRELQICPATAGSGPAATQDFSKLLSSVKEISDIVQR
Chain of EGFR (P00533 25-1210): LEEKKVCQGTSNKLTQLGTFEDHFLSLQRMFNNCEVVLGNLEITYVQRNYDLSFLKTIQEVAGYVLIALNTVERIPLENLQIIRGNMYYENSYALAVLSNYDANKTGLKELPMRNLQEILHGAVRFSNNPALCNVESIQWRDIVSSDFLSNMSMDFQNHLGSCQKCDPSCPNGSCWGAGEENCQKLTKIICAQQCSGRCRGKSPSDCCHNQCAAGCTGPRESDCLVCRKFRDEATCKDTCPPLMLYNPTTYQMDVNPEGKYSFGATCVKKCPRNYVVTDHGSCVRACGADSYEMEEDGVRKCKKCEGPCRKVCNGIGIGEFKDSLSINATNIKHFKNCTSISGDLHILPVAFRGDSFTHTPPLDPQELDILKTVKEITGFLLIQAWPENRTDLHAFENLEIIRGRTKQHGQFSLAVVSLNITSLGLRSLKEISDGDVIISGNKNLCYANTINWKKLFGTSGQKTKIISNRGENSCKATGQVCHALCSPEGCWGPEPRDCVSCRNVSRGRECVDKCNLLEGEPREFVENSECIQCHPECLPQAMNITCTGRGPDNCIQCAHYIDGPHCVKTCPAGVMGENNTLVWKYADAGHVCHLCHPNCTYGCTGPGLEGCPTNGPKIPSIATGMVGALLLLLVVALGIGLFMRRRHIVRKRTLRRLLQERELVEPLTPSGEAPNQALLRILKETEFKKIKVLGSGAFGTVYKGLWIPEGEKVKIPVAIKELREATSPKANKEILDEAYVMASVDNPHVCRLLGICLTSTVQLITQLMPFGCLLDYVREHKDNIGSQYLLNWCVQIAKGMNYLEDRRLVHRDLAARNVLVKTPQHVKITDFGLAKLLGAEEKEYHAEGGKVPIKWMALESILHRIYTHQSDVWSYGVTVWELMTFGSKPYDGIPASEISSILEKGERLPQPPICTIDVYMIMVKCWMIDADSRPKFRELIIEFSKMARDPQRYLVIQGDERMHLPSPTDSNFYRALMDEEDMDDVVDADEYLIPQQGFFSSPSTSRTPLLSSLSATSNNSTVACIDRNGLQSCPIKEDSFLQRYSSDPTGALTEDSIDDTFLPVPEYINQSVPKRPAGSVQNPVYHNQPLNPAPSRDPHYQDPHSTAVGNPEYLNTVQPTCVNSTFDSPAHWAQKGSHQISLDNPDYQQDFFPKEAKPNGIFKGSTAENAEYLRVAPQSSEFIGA
Chain of CDK1 (P06493 whole entry): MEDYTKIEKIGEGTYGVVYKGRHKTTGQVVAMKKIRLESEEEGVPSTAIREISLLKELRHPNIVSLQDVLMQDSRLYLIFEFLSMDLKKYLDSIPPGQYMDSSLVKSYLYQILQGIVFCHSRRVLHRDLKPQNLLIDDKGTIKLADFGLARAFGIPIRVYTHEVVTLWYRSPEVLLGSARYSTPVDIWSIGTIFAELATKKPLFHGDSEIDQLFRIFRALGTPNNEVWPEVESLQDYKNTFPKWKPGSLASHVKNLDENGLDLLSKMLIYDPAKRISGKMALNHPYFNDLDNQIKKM
Chain of CDK1 (P14635 whole entry partner): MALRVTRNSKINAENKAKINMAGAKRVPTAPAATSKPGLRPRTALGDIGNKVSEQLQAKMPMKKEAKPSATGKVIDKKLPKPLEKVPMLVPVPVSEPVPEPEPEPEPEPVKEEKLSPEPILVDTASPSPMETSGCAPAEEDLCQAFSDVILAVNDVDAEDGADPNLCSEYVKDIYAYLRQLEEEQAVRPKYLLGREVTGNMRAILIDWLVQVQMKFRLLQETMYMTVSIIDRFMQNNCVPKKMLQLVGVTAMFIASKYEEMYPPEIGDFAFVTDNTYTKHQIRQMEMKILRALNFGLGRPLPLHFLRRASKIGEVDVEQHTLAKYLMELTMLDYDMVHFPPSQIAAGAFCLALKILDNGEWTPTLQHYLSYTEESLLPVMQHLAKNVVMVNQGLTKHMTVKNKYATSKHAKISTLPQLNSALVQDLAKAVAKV
Chain of TEK (Q02763 23-1124): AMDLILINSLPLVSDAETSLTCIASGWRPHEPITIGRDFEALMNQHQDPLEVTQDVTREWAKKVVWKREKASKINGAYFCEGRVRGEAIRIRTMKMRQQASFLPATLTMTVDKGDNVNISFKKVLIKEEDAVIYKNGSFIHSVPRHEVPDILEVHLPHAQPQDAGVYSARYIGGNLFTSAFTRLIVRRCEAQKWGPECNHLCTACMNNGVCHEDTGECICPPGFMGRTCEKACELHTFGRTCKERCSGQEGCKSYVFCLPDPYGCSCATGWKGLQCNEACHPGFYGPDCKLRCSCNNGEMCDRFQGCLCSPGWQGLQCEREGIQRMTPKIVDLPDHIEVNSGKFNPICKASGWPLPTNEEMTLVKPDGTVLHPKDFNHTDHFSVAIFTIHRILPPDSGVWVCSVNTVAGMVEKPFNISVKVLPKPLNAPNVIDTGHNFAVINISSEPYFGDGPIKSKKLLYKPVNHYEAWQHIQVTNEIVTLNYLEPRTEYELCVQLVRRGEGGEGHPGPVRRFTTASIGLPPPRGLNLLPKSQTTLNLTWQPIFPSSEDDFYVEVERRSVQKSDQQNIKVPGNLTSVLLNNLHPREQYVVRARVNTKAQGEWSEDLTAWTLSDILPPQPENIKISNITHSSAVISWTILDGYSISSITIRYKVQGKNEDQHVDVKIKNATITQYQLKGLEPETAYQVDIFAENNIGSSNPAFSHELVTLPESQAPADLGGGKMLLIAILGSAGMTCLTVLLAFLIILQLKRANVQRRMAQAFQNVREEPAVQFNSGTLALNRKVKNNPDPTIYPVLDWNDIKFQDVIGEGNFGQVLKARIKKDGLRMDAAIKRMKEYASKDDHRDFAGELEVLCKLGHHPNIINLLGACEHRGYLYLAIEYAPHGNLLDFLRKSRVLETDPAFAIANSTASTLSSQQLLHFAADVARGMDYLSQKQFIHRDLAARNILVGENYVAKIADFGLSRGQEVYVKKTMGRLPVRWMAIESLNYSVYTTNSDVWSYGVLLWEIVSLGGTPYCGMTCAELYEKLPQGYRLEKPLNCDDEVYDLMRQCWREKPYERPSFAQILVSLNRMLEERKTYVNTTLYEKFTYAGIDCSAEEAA
Chain of CLK1 (P49759 whole entry): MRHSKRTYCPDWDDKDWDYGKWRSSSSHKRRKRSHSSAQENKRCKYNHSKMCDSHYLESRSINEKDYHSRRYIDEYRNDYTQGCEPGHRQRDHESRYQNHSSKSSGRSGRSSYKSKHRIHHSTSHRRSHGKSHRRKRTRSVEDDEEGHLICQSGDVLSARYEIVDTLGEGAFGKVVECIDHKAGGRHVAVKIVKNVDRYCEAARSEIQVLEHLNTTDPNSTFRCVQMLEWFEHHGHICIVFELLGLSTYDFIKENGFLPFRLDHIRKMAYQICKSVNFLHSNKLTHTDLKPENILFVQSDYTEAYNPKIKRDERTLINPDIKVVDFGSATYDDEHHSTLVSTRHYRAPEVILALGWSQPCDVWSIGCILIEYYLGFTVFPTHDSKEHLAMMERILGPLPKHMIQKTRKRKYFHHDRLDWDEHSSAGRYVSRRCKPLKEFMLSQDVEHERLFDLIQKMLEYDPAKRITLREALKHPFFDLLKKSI

IC50 (ROCK1)	IC50 (CDK1)	IC50 [2]	IC50 (LCK)	IC50 (TEK)	IC50 (PKC)	IC50 (CLK1)	IC50 (ABL1)	IC50 (SYK)	IC50 (EGFR)	Structure (SMILES)	IC50 [1]	Mean tumour selectivity [1]	inhibition at 10 µM [3]	inhibition at 10 µM (KG-1a leukaemia cells)	inhibition at 10 µM [4]	inhibition at 10 µM [5]	inhibition at 10 µM (K562 leukaemia cells)	inhibition at 10 µM (HepG2 liver cancer cells)	inhibition at 10 µM [6]
> 2 µM	0.31 ± 0.012 µM	78.4 ± 1.5 nM	> 2 µM	> 2 µM	> 2000 nM	1.07 ± 0.054 µM	> 2 µM	1.12 ± 0.022 µM	40.7 ± 1 nM	CCOC(=O)c1sc(N2N=C(c3ccc(Cl)cc3Cl)CC2c2ccc(OC)cc2)nc1C (centres unmarked) [Compound 10b, Ethyl-2-(3-(2,4-dichlorophenyl)-5-(4-methoxyphenyl)-4,5-dihydro-1H-pyrazol-1-yl)-4-methylthiazole-5-carboxylate]	72.4 ± 7.2 µM	16.1	37.7 ± 3.9%	31 ± 2.5%	47.2 ± 4.9%	41.5 ± 2.1%	54.2 ± 3.8%	50.6 ± 2.2%	48.5 ± 2.3%
> 2 µM	0.245 ± 0.007 µM	43 ± 2.4 nM	> 2 µM	> 2 µM	> 2000 nM	0.798 ± 0.019 µM	> 2 µM	0.87 ± 0.031 µM	32.5 ± 2.2 nM	COc1ccc(C2CC(c3ccc(Cl)cc3Cl)=NN2c2nc(C)c(C(=O)Nc3ccccc3)s2)cc1OC (centres unmarked) [Compound 10d, 2-(3-(2,4-Dichlorophenyl)-5-(3,4-dimethoxyphenyl)-4,5-dihydro-1H-pyrazol-1-yl)-4-methyl-N-phenylthiazole-5-carboxamide]	51.4 ± 3.5 µM	15.3	56.5 ± 2%	57.2 ± 3.4%	40.1 ± 2%	54.1 ± 2.8%	60.2 ± 2.3%	65.5 ± 3.9%	60.9 ± 4.3%
